Reference: US20130005676A1 (UNIVERSITY OF ROCHESTER, priority 2009, published 2013)
“Also recorded” adds a separate entry of the source.

How the values were obtained:
AMP deaminase = test: HPLC analysis of AMP degradation in muscle/subcutis sections from the Zusanli point; format: biochemical, mice; settings: 200 μM, tissue incubated in 1 mM AMP for 45 min
Method: The analysis of enzymatic degradation of purines was based on sections (400 μm) of skeletal muscles with overlying subcutis harvested from tissue in the Zusanli point. Each section per well was placed into a 6-well plate with 2 ml (in a phosphate-free buffer (in mM: 2 CaCl2, 120 NaCl, 5 KCL, 10 Glucose, 20 HEPES, pH=7.3) and bubble with 100% O2 containing 1 mM AMP with or without 500 μM deoxycoformycin (Tocris Bioscience, UK). The samples were collected from each well at 0 and 45 min and stored at −80° C. for HPLC analysis. The analyses were carried out on an ESA reverse-phase H584 HPLC system (ESA Inc., USA) and an ESA model 526 UV detector (ESA Inc.) as previously described (Cui et al., “The Organic Cation Transporter-3 is a Pivotal Modulator of Neurodegeneration in the Nigrostriatal Dopaminergic Pathway,” Proc. Nat'l. Acad. Sci. USA 106:8043-8048 (2009); Volonte et al., “Development of an HPLC Method for Determination of Metabolic Compounds in Myocardial Tissue,” J. Pharm. Biomed. Anal. 35:647-653 (2004), which are hereby incorporated by reference in their entirety). Chromatographic separation was achieved by using a Lichrospher® 100 RP-18 column (5 μm, 250 mm×3 mm; Merck, Germany). […] Eluted purines were detected at 260 nm, and the chromatographic peaks were integrated using CoulArray software.

[1] = tested on: inflammatory pain, rat formalin test; settings: local injection; cited from earlier work
[2] = tested on: mice with inflammatory pain (CFA); test: Inflammatory pain (CFA in paw): mechanical allodynia (Von Frey) and thermal hyperalgesia; format: in vivo
Description: Peripheral inflammation was induced by injection of Complete Freud Adjuvant (CFA, mixed with an equal amount of oil, […], Jackson labs) (Raghavendra et al., “Complete Freunds Adjuvant-Induced Peripheral Inflammation Evokes Glial Activation and Proinflammatory Cytokine Expression in the CNS,” Eur. J. Neurosci. 20:467-473 (2004), which is hereby incorporated by reference in its entirety). […] Neuropathic pain was induced by ligation of the sciatic nerve with 4.0 polypropylene suture in mice sedated with ketamine (60 mg/kg, i.p.) and xylazine (10 mg/kg, i.p.) (Bennett et al., “A Peripheral Mononeuropathy in Rat that Produces Disorders of Pain Sensation Like Those Seen in Man,” Pain 33:87-107 (1988); Martucci et al., “The Purinergic Antagonist PPADS Reduces Pain Related Behaviours and Interleukin-1 beta, Interleukin-6, iNOS and nNOS Overproduction in Central and Peripheral Nervous System After Peripheral Neuropathy in Mice,” Pain 137:81-95 (2008), which are hereby incorporated by reference in their entirety).
Mechanical allodynia was evaluated using repeated stimulations with a Von Frey filament exerting 0.02 grams of force onto the plantar surface (Colburn et al., “The Effect of Site and Type of Nerve Injury on Spinal Glial Activation and Neuropathic Pain Behavior,” Exp. Neurol. 157:289-304. (1999), which is hereby incorporated by reference in its entirety). The percentage of negative responses of a total of 10 trials was calculated for each foot. Thermal hyperalgesia was assessed using an Analgesymeter (Ugo Basile, Comerio, Italy) (Stein et al., “Intrinsic Mechanisms of Antinociception in Inflammation: Local Opioid Receptors and Beta-Endorphin,” J. Neurosci. 10:1292-1298 (1990), which is hereby incorporated by reference in its entirety). In short, a mobile radiant heat source was focused on the hind paw, and the paw withdrawal latencies were defined as the time taken by the mouse to remove its hind paw from the heat source (max 20 sec to avoid tissue damage). The paw withdrawal was repeated three times for each foot and the average calculated. To avoid conditioning to stimulation a 5 min rest period was interposed between each trial in both thermal and mechanical tests. Behavioral parameters were evaluated prior to intraplantar injection of CFA or nerve ligation (i.e. day 0), and again on day 3-4 in mice receiving the CFA injection, and at day 5-7 in mice with nerve ligation unless otherwise noted. Prior to injection of CCPA, saline, or acupuncture in the Zusanli point, the mice were placed in a restraining under light isoflurane anesthesia (˜1%). The total duration of anesthesia was ˜2 min and mice with inflammatory, neurogenic pain, and their controls were treated similarly. 2-chloro-N6-cyclopentyl-adenosine (CCPA, 0.1 mM, 20 μl) was injected in the Zusanli point ˜5 min before acupuncture. […] The needle was slowly rotated ˜2 time (˜20-30 sec) every 5 min for a total of 30 min during an acupuncture session. A microdialysis probe (MD-2211, Bioanalytical systems, West Lafayette, Ind.) was implanted 1-3 hrs prior to collection of microdialysis samples. The microdialysis probe was implanted in a distance of 0.4-0.6 mm from the Zusanli point. The microdialysis probe was perfused with Ringer's solution at a rate of 1 μl per minute. The microdialysates were collected on ice and the perfusate collected over a 30 min period (30 μl) was immediately frozen at −80° C. until HPLC analysis. Deoxycoformycin was administered in a dose of 50 mg/kg i.p. 30 min prior to acupuncture.

[3] = tested on: mice with inflammatory or neuropathic pain; test: Statements covering both inflammatory and neuropathic pain models; format: in vivo; settings: 50 mg/kg i.p. 30 min prior to 30 min acupuncture; vehicle + acupuncture ~[…]
Method: Peripheral inflammation was induced by injection of Complete Freud Adjuvant (CFA, mixed with an equal amount of oil, total volume 0.1 ml) in the plantar surface of the left hind paw of mice (25-30 g, Jackson labs) (Raghavendra et al., “Complete Freunds Adjuvant-Induced Peripheral Inflammation Evokes Glial Activation and Proinflammatory Cytokine Expression in the CNS,” Eur. J. Neurosci. 20:467-473 (2004), which is hereby incorporated by reference in its entirety). An equal amount of saline (0.1 ml) was injected in the right hind paw as control. […]
Mechanical allodynia was evaluated using repeated stimulations with a Von Frey filament exerting 0.02 grams of force onto the plantar surface (Colburn et al., “The Effect of Site and Type of Nerve Injury on Spinal Glial Activation and Neuropathic Pain Behavior,” Exp. Neurol. 157:289-304. (1999), which is hereby incorporated by reference in its entirety). The percentage of negative responses of a total of 10 trials was calculated for each foot. Thermal hyperalgesia was assessed using an Analgesymeter (Ugo Basile, Comerio, Italy) (Stein et al., “Intrinsic Mechanisms of Antinociception in Inflammation: Local Opioid Receptors and Beta-Endorphin,” J. Neurosci. 10:1292-1298 (1990), which is hereby incorporated by reference in its entirety). […] The paw withdrawal was repeated three times for each foot and the average calculated. […] Behavioral parameters were evaluated prior to intraplantar injection of CFA or nerve ligation (i.e. day 0), and again on day 3-4 in mice receiving the CFA injection, and at day 5-7 in mice with nerve ligation unless otherwise noted. […]

[4] = tested on: mice with neuropathic pain; test: Neuropathic pain (sciatic nerve ligation): mechanical allodynia and thermal hyperalgesia; format: in vivo; settings: WT mice, combined with acupuncture
Method: Peripheral inflammation was induced by injection of Complete Freud Adjuvant (CFA, mixed with an equal amount of oil, total volume 0.1 ml) in the plantar surface of the left hind paw of mice (25-30 g, Jackson labs) (Raghavendra et al., “Complete Freunds Adjuvant-Induced Peripheral Inflammation Evokes Glial Activation and Proinflammatory Cytokine Expression in the CNS,” Eur. J. Neurosci. 20:467-473 (2004), which is hereby incorporated by reference in its entirety). An equal amount of saline (0.1 ml) was injected in the right hind paw as control. Neuropathic pain was induced by ligation of the sciatic nerve with 4.0 polypropylene suture in mice sedated with ketamine (60 mg/kg, i.p.) and xylazine (10 mg/kg, i.p.) (Bennett et al., “A Peripheral Mononeuropathy in Rat that Produces Disorders of Pain Sensation Like Those Seen in Man,” Pain 33:87-107 (1988); Martucci et al., “The Purinergic Antagonist PPADS Reduces Pain Related Behaviours and Interleukin-1 beta, Interleukin-6, iNOS and nNOS Overproduction in Central and Peripheral Nervous System After Peripheral Neuropathy in Mice,” Pain 137:81-95 (2008), which are hereby incorporated by reference in their entirety).
Mechanical allodynia was evaluated using repeated stimulations with a Von Frey filament exerting 0.02 grams of force onto the plantar surface (Colburn et al., “The Effect of Site and Type of Nerve Injury on Spinal Glial Activation and Neuropathic Pain Behavior,” Exp. Neurol. 157:289-304. (1999), which is hereby incorporated by reference in its entirety). The percentage of negative responses of a total of 10 trials was calculated for each foot. Thermal hyperalgesia was assessed using an Analgesymeter (Ugo Basile, Comerio, Italy) (Stein et al., “Intrinsic Mechanisms of Antinociception in Inflammation: Local Opioid Receptors and Beta-Endorphin,” J. Neurosci. 10:1292-1298 (1990), which is hereby incorporated by reference in its entirety). In short, a mobile radiant heat source was focused on the hind paw, and the paw withdrawal latencies were defined as the time taken by the mouse to remove its hind paw from the heat source (max 20 sec to avoid tissue damage). The paw withdrawal was repeated three times for each foot and the average calculated. To avoid conditioning to stimulation a 5 min rest period was interposed between each trial in both thermal and mechanical tests. Behavioral parameters were evaluated prior to intraplantar injection of CFA or nerve ligation (i.e. day 0), and again on day 3-4 in mice receiving the CFA injection, and at day 5-7 in mice with nerve ligation unless otherwise noted. Prior to injection of CCPA, saline, or acupuncture in the Zusanli point, the mice were placed in a restraining under light isoflurane anesthesia (˜1%). […]

wild type mice = test: Touch sensitivity (Von Frey filaments) after injection in the Zusanli point of wild type mice; format: in vivo; settings: 5 mM injected in Zusanli point, tested one hour after injection
Method: Using Von Frey Filaments, a baseline for pain threshold was established in the wild type. The mice were then injected with 5 mM of dibut 1-cAMP (db-cAMP) in the zunsanli accu-point. To ensure the proper spread of db cAMP, the mice were tested for pain one hour after injections and assessed for touch sensitivity. The experiment was repeated in the same animals 24 h later and yielded similar results.
Mechanical allodynia was evaluated using repeated stimulations with a Von Frey filament exerting 0.02 grams of force onto the plantar surface (Colburn et al., “The Effect of Site and Type of Nerve Injury on Spinal Glial Activation and Neuropathic Pain Behavior,” Exp. Neurol. 157:289-304. (1999), which is hereby incorporated by reference in its entirety). The percentage of negative responses of a total of 10 trials was calculated for each foot. Thermal hyperalgesia was assessed using an Analgesymeter (Ugo Basile, Comerio, Italy) (Stein et al., “Intrinsic Mechanisms of Antinociception in Inflammation: Local Opioid Receptors and Beta-Endorphin,” J. Neurosci. 10:1292-1298 (1990), which is hereby incorporated by reference in its entirety). […] The paw withdrawal was repeated three times for each foot and the average calculated. […]

reduction of AMP conversion to IMP (AMP deaminase) [%]	reduction of AMP conversion to IMP (AMP deaminase; listed as Deoxycoformycin)	Compound	pain relief on co-administration with an adenosine kinase inhibitor [1]	tactile or thermal sensitivity when not combined with acupuncture ([2]; CFA, no acupuncture)	effect on duration of acupuncture pain relief, mechanical and thermal stimulation ([2]; WT mice, combined with acupuncture)	duration of suppression of mechanical allodynia and thermal pain [3] [h]	effect on duration of acupuncture pain relief, mechanical and thermal stimulation [4]	sensitivity to touch (wild type mice)
~50	approximately 50%	OC[C@H]1O[C@@H](n2cnc3c2NC=NC[C@H]3O)C[C@@H]1O [deoxycoformycin]	augmented the pain relief	does not alter the pain sensitivity; also recorded: no effect	prolonged	~3.0	prolonged	–
–	–	CCCC(=O)Nc1ncnc2c1ncn2[C@@H]1O[C@@H]2COP(=O)(O)O[C@H]2[C@H]1OC(=O)CCC [dibutyryl cAMP]	–	–	–	–	–	increased transiently
